# In article PMC8286840, “Identifying SARS-CoV-2 antiviral compounds by screening for small molecule inhibitors of Nsp3 papain-like protease” (Biochemical Journal, 2021):
# Structures can show the parent of a compound that is named as a salt. Where two headings read alike, the source gives them in different places. Where a SMILES comes first, the peptide text is derived from it. Side-chain parts run from the residue outwards. The star is where a group is joined. Nicotinoyl = O=C(c1cccnc1)*; Cbz = O=C(OCc1ccccc1)*
# Assays:
# [1] = biological target: T1, SARS-CoV-2 PLpro (nsp3 1564–1878) (Severe acute respiratory syndrome coronavirus 2, UniProt P0DTD1); test: biochemical; set-up: FRET-quenched peptide (Pro3) cleavage by PLpro, 10 min pre-incubation, slope over 20 min, normalised to no-compound control; details: low concentration screen, read-out: % of control remaining
# [2] = biological target: T1, SARS-CoV-2 PLpro (nsp3 1564–1878); test: biochemical; set-up: FRET-quenched peptide (Pro3) cleavage by PLpro, 10 min pre-incubation, slope over 20 min, normalised to no-compound control; details: high concentration screen, read-out: % of control remaining
structure (smiles),measurement,setting,value
CCCN(CCC)C(=O)C(CCC(=O)O)NC(=O)c1ccccc1 (centres unmarked) [Proglumide],remaining activity at 1.25 µM,[1]; Well no.=941,104%
same,remaining activity at 3.75 µM,[2]; Well no.=941,100%
O=C1CCN(c2ccccc2)N1 [Phenidone],remaining activity at 1.25 µM,[1]; Well no.=3951,103%
same,remaining activity at 3.75 µM,[2]; Well no.=3951,101%
CC(C)=CCC/C(C)=C/CC/C(C)=C/CC/C(C)=C/CC/C(C)=C/CC/C(C)=C/CC/C(C)=C/CC/C(C)=C/CC/C(C)=C/CO [Solanesol],remaining activity at 1.25 µM,[1]; Well no.=3759,96.8%
same,remaining activity at 3.75 µM,[2]; Well no.=3759,96.5%
"COc1cc2ncnc(Nc3ccc(Cl)cc3F)c2cc1OC [4-[(4'-Chloro-2'-fluoro)phenylamino]-6,7-dimethoxyquinazoline hydrochloride]",remaining activity at 1.25 µM,[1]; Well no.=2540,96.4%
same,remaining activity at 3.75 µM,[2]; Well no.=2540,98.1%
CCNc1ncnc2c1ncn2[C@@H]1O[C@H](CO)[C@@H](O)[C@H]1O [N6-Ethyladenosine],remaining activity at 1.25 µM,[1]; Well no.=7906,99.5%
same,remaining activity at 1.25 µM,[1]; Well no.=8517,100%
same,remaining activity at 3.75 µM,[2]; Well no.=7906,97.7%
same,remaining activity at 3.75 µM,[2]; Well no.=8517,95.1%
Cc1nc2sccn2c(=O)c1CCN1CCC(=C(c2ccc(F)cc2)c2ccc(F)cc2)CC1 [Ritanserin],remaining activity at 1.25 µM,[1]; Well no.=1352,94.6%
same,remaining activity at 3.75 µM,[2]; Well no.=1352,96.7%
CC1(C)CC=C(c2cnc3ccccc3c2)c2cc(C(=O)Nc3ccc(C(=O)O)cc3)ccc21 [BMS-195614],remaining activity at 1.25 µM,[1]; Well no.=5458,98.2%
same,remaining activity at 3.75 µM,[2]; Well no.=5458,103%
Cc1ccc(N(CC2=NCCN2)c2cccc(O)c2)cc1 [Phentolamine],remaining activity at 1.25 µM,[1]; Well no.=1635,105%
same,remaining activity at 3.75 µM,[2]; Well no.=1635,105%
CNc1ncnc2c1ncn2[C@H]1C[C@H](OP(=O)(O)O)[C@@H](COP(=O)(O)O)O1 [MRS 2179],remaining activity at 1.25 µM,[1]; Well no.=926,98.6%
same,remaining activity at 3.75 µM,[2]; Well no.=926,103%
CS(=O)(=O)Nc1ccc([N+](=O)[O-])cc1Oc1ccccc1 [Nimesulide],remaining activity at 1.25 µM,[1]; Well no.=1043,93.4%
same,remaining activity at 1.25 µM,[1]; Well no.=1574,95.5%
same,remaining activity at 3.75 µM,[2]; Well no.=1043,96.1%
same,remaining activity at 3.75 µM,[2]; Well no.=1574,94.3%
Nc1ncnc2c1ncn2[C@@H]1O[C@H](C(=O)NC2CC2)[C@@H](O)[C@H]1O [5'-(N-Cyclopropyl)carboxamidoadenosine],remaining activity at 1.25 µM,[1]; Well no.=86,99.1%
same,remaining activity at 3.75 µM,[2]; Well no.=86,101%
NC(N)=NCCSSCCN=C(N)N [Guanidinoethyl disulfide dihydrobromide],remaining activity at 1.25 µM,[1]; Well no.=429,89.1%
same,remaining activity at 3.75 µM,[2]; Well no.=429,88.8%
Cc1cc(COc2nc(N)nc3ccn(Cc4ccccn4)c23)no1 [TLR7 agonist 2],remaining activity at 1.25 µM,[1]; Well no.=8227,106%
same,remaining activity at 3.75 µM,[2]; Well no.=8227,103%
O=C(O)[C@@H]1C[C@@H](O)CN1 [L-Hydroxyproline],remaining activity at 1.25 µM,[1]; Well no.=6735,101%
same,remaining activity at 1.25 µM,[1]; Well no.=8744,94.2%
same,remaining activity at 3.75 µM,[2]; Well no.=6735,102%
same,remaining activity at 3.75 µM,[2]; Well no.=8744,91.4%
Cc1ncc(CN2CC=C(c3ccccc3)CC2)c(N)n1 [Ro 10-5824 (dihydrochloride)],remaining activity at 1.25 µM,[1]; Well no.=7039,105%
same,remaining activity at 3.75 µM,[2]; Well no.=7039,106%
C[C@](N)(Cc1ccc(O)cc1)C(=O)O [L-alpha-Methyl-p-tyrosine],remaining activity at 1.25 µM,[1]; Well no.=843,104%
same,remaining activity at 3.75 µM,[2]; Well no.=843,106%
"CC(C)C[C@H](NC(=O)[C@@H](O)[C@H](N)Cc1ccc([N+](=O)[O-])cc1)C(=O)O [(2S,3R)-3-Amino-2-hydroxy-4-(4-nitrophenyl)butanoyl-L-leucine hydrochloride]",remaining activity at 1.25 µM,[1]; Well no.=67,106%
same,remaining activity at 3.75 µM,[2]; Well no.=67,104%
NC(N)=Nc1nc(CSCCN/C=N/S(=O)(=O)c2ccc(Br)cc2)cs1 [Ebrotidine],remaining activity at 1.25 µM,[1]; Well no.=7003,106%
same,remaining activity at 3.75 µM,[2]; Well no.=7003,103%
Oc1ccc(O)cc1 [Hydroquinone],remaining activity at 1.25 µM,[1]; Well no.=472,102%
same,remaining activity at 1.25 µM,[1]; Well no.=3849,105%
same,remaining activity at 3.75 µM,[2]; Well no.=472,99.1%
same,remaining activity at 3.75 µM,[2]; Well no.=3849,106%
COc1ccc(CNCc2cccc3ccccc23)cc1 [ML133 HCl],remaining activity at 1.25 µM,[1]; Well no.=4793,97.9%
same,remaining activity at 3.75 µM,[2]; Well no.=4793,96.1%
CC(C)(Sc1cc(C(C)(C)C)c(O)c(C(C)(C)C)c1)Sc1cc(C(C)(C)C)c(O)c(C(C)(C)C)c1 [Probucol],remaining activity at 1.25 µM,[1]; Well no.=4083,98.5%
same,remaining activity at 3.75 µM,[2]; Well no.=4083,105%
C[C@H](Cc1ccc(OCC(=O)O)cc1)NC[C@H](O)c1cccc(Cl)c1 (racemic) [BRL 37344 sodium],remaining activity at 1.25 µM,[1]; Well no.=183,98%
same,remaining activity at 3.75 µM,[2]; Well no.=183,103%
CCCCC/C=C\C\C=C/C=C/C=C/[C@@H](SCC(NC(C)=O)C(=O)O)[C@@H](O)CCCC(=O)O (some centres unmarked) [N-Acetyl-leukotriene E4],remaining activity at 1.25 µM,[1]; Well no.=4435,101%
same,remaining activity at 3.75 µM,[2]; Well no.=4435,102%
CCCCC[C@H](O)CC(=O)CCc1ccc(O)c(OC)c1 [[6]-Gingerol],remaining activity at 1.25 µM,[1]; Well no.=6162,96.6%
same,remaining activity at 3.75 µM,[2]; Well no.=6162,99.6%
CS(=O)(=O)c1ccc([C@H](O)[C@@H](COC(=O)CN)NC(=O)C(Cl)Cl)cc1 [Thiamphenicol glycinate],remaining activity at 1.25 µM,[1]; Well no.=2025,109%
same,remaining activity at 3.75 µM,[2]; Well no.=2025,108%
Nc1cc(C(Cl)=C(Cl)Cl)c(S(N)(=O)=O)cc1S(N)(=O)=O [Clorsulon],remaining activity at 1.25 µM,[1]; Well no.=5298,87.3%
same,remaining activity at 1.25 µM,[1]; Well no.=7310,99.9%
same,remaining activity at 3.75 µM,[2]; Well no.=5298,87.7%
same,remaining activity at 3.75 µM,[2]; Well no.=7310,97.7%
COc1ccccc1N1CCN(CCN2C(=O)CC3(CCCC3)CC2=O)CC1 [BMY 7378],remaining activity at 1.25 µM,[1]; Well no.=5346,91.4%
same,remaining activity at 3.75 µM,[2]; Well no.=5346,88.7%
CC[C@H](C)[C@H](NC(=O)[C@@H]1CCCN1C(=O)[C@H](Cc1cnc[nH]1)NC(=O)[C@H](CCCCNC(=O)[C@H](CCCN=C(N)N)NC(=O)OCc1ccccc1)NC(=O)[C@H](Cc1ccc(O)cc1)NC(=O)c1cccnc1)C(=O)O [CGP-42112] (Nicotinoyl-YK([Arg-Cbz])HPI-OH),remaining activity at 1.25 µM,[1]; Well no.=7652,98%
same,remaining activity at 3.75 µM,[2]; Well no.=7652,97.2%
"O=C1Nc2ccc(I)cc2/C1=C/c1cc(Br)c(O)c(Br)c1 [GW 5074 - 3-(3,5-Dibromo-4-hydroxy-benzylidene)-5-iodo-1,3-dihydro-indol-2-one]",remaining activity at 1.25 µM,[1]; Well no.=2392,97.9%
same,remaining activity at 3.75 µM,[2]; Well no.=2392,101%
O=c1[nH]c(=O)n(C2CCCO2)cc1F (centres unmarked) [Ftorafur],remaining activity at 1.25 µM,[1]; Well no.=2164,97.3%
same,remaining activity at 3.75 µM,[2]; Well no.=2164,99.1%
CCCSc1ccc2[nH]c(NC(=O)OC)nc2c1 [Albendazole],remaining activity at 1.25 µM,[1]; Well no.=2083,103%
same,remaining activity at 3.75 µM,[2]; Well no.=2083,105%
CC(C)COc1ccc(CNC(=O)N(Cc2ccc(F)cc2)C2CCN(C)CC2)cc1 [Pimavanserin],remaining activity at 1.25 µM,[1]; Well no.=6521,95%
same,remaining activity at 3.75 µM,[2]; Well no.=6521,95.9%
